# Measurements taken from US10501503B2, “Modified membrane permeability” (Cathay Biotech Inc., priority 2015, dated 2019).
# Key:
# E. coli = conditions: Qian et al., Biotechnology and Bioengineering 108:93-103, 2010; cited from earlier work
# H. alvei = assay: Cadaverine inhibits gram-negative bacteria: lysine-to-cadaverine conversion after pre-incubation in cadaverine; type: cell-based, Hafnia alvei; conditions: 3% cadaverine for 24 hours
# Method: We studied the affect of cadaverine on the gram-negative bacteria H. alvei. First, H. alvei was transformed with pCIB60 and grown for 24 hours in 50 mL LB medium with ampicillin (100 μg/mL) at 37° C. The following day, 50 mL of the seed culture was added to a 10 L jar fermenter containing […] of fermentation medium (20 g/L glucose, 30 g/L corn steep liquor, 10 g/L yeast extract, 5 g/L ammonium sulfate, 10 g/L MgSO4, 0.05 g/L FeSO4, 0.05 g/L MnSO4, 5 g/L CaCl2, 0.1 g/L ampicillin), and the fermentation proceeded for 18 hours. 10 g of fermentation broth was collected, centrifuged at 6000 rpm for 5 min at room temperature, and the biomass was recovered. 0.5 g of biomass was added to a 50 mM potassium phosphate buffer with either 0% or 3% cadaverine for 24 hours. After incubation, each sample was centrifuged at 6000 rpm for 5 min at room temperature, the biomass was recovered, and fresh potassium phosphate buffer with lysine-HCl and PLP to a final concentration of 200 g/L and 0.1 mM, respectively, was added. The initial pH of the reaction as adjusted to 5.0, and the reaction was allowed to proceed for 120 minutes at 37° C. […] The cadaverine concentration in each sample was quantified using NMR, and yield was calculated by dividing the molar amount of cadaverine produced by the molar amount of lysine added.
smiles,measurement,setting,value
NCCCCCN [cadaverine],Effect of cadaverine on growth of E. coli,E. coli,inhibits growth
same,Effect of cadaverine pre-incubation on the cells' ability to convert lysine to cadaverine,H. alvei,significant decrease in conversion ability
